Laboratory results published in patent publication US9814752B2, “Agonists of guanylate cyclase useful for the treatment of hypercholesterolemia, atherosclerosis, coronary heart disease, gallstone, obesity and other cardiovascular diseases” (SYNERGY PHARMACEUTICALS, INC., priority 2007, dated 2017).
Positions of bridges follow the written chain, without caps; N, C: chain ends. Residues, ends and D or L forms follow the SMILES beside them.

Assays:
[1] = tested on: CaCo-2 cells; test: ^3H-taurocholate (bile acid) absorption by CaCo-2 monolayer; format: cell-based, human; conditions: for absorption of ^3H-taurocholate (kinetics, FIG. 4): 16-day CaCo-2 monolayers, incubation up to 60 minutes, average of three determinations; for absorption of ^3H-taurocholate (kinetics, FIG. 4) / absorption of ^3H-taurocholate (FIG. 5): 30 min pre-incubation; for absorption of ^3H-taurocholate (FIG. 5): 20-day CaCo-2 cells, 60 minutes with 1 uCi ^3H-taurocholate, quadruplets
Protocol: (§1) CaCo-2, human colon carcinoma cells, were obtained from American Type Culture Collection (ATCC) and cultured in DMEM medium containing 10% fetal bovine serum, 1% penicillin-streptomycin, 2 mM L-glutamine, 1% non-essential-amino acids. Cells were fed fresh medium every third day and grown for 16-21 days to form completely differentiated monolayer. Fully differentiated CaCo-2 cells are known to express high density of GC-C receptors.
Phosphatidyl choline was dissolved in ethanol to make 50 mM stock solution. Calculated volume of the stock solution of phosphatidyl choline was mixed with 3H-taurocholate in a plastic tube and dried under argon gas at 80° C. The dried material was dissolved in transport buffer to get the final concentration of phosphatidyl choline (0.5 mM) and of 3H-taurocholate 10 μCi/mL.
CaCo-2 cells were grown in 24-well plates for 16 days to allow complete monolayer formation and cell differentiation. Completely differentiated monolayers were then pre-incubated with 250 μL of the transport buffer (HEPES 25 mM, NaCl 120 mM, KCl 5.4 mM, CaCl2 1.8 mM and MgSO4, pH 7.5) containing either SP-304 alone or in combination with PDE inhibitors such as IBMX, SS and ZAP. The monolayers were pre-incubated with transport buffer containing either of the following: vehicle (control), 1 mM 8-bromo-cGMP, 500 μM SS, 500 μM ZAP, 1 μM SP-304, 0.1 μM SP-304+500 μM SS and 1 μM SP-304+500 μM ZAP. After the indicated pre-incubation time, 50 μL, of ^3H-taurocholate (1 μCi) cocktail was added and cells were incubated for an additional 60 minutes, washed three times with ice cold PBS. Cells were lysed with 0.5 N NaOH for 4 hours and radioactivity in the lysate was counted in a scintillation counter.
16-day grown monolayers of CaCo-2 cells in 24-well plates were pre-incubated with transport buffer containing the compounds as indicated in the figure for 30 minutes. After the pre-incubation, 1 μCi of ^3H-taurocholate cocktail was added in each well and cells were further incubated for 60 minutes. Cells were washed three times with ice cold PBS and lysed with 0.5 N NaOH and lysates were counted for radioactivity in a scintillation counter. Results are expressed as an average of three determinations. Results on the x-axis were plotted in logarithmic scale.
After the pre-incubation, 1 μCi of ^3H-taurocholate cocktail was added in each well and cells were further incubated for 60 minutes. Cells were washed three times with ice cold PBS and lysed with 0.5 N NaOH and lysates were counted for radioactivity in a scintillation counter. This experiment was run in quadruplets and results are expressed as mean±SD.
The procedure used in this experiment was essentially the same except that a lower concentration of ZAP (250 μM) in combination experiments with SP-304.

[2] = molecular target: T1, GC-C receptors (Homo sapiens, UniProt P25092); test: Cyclic GMP stimulation assay in CaCo-2 monolayers (cGMP ELISA); format: cell-based; conditions: for effect of PDE inhibitor on stimulation of cGMP production by SP-304: PDE inhibitor in combination with SP-304, 30 minutes
T1 construct: host or cells: CaCo-2 human colon carcinoma cells, differentiated monolayers grown for 16 days
Protocol: as §1
Biological activity of the GCRA peptides was assayed as previously reported (5). Briefly, 16 days grown monolayers of CaCo-2 cells in 24-well plates were washed twice with 250 μl of DMEM containing 50 mM HEPES (pH 7.4), pre-incubated at 37° C. for 10 min with 250 μl of DMEM containing 50 mM HEPES (pH 7.4) and 1 mM isobutylmethylxanthine (IBMX), followed by incubation with GCRA peptides (0.1 nM to 10 μM) for 30 min. The medium was aspirated, and the reaction was terminated by the addition of 3% perchloric acid. Following centrifugation, and neutralization with 0.1 N NaOH, the supernatant was used directly for measurements of cGMP using an ELISA kit (Caymen Chemical, Ann Arbor, Mich.)
Monolayers were treated […] of serum free DMEM for 30 minutes with either SP-304 alone or in combination with phosphodiesterase inhibitors such as, 3-isobutyl-1-methylxanthine (IBMX), sulindac sulfone (SS) and zaprinast (ZAP). After the incubation, monolayer were lysed with 250 μL of 3% perchloric acid. The lysate was neutralized with 0.1 N NaOH and used for ELISA to determine the concentration of cGMP. The assay procedure was essentially the same as described (5). […] Since CaCo-2 cells overexpress phosphodiesterases (PDE), GC-C agonists are used in combination with PDE inhibitors to measure the actual stimulatory effect of GC-C agonists.

T1 sequence (P25092 24-1073): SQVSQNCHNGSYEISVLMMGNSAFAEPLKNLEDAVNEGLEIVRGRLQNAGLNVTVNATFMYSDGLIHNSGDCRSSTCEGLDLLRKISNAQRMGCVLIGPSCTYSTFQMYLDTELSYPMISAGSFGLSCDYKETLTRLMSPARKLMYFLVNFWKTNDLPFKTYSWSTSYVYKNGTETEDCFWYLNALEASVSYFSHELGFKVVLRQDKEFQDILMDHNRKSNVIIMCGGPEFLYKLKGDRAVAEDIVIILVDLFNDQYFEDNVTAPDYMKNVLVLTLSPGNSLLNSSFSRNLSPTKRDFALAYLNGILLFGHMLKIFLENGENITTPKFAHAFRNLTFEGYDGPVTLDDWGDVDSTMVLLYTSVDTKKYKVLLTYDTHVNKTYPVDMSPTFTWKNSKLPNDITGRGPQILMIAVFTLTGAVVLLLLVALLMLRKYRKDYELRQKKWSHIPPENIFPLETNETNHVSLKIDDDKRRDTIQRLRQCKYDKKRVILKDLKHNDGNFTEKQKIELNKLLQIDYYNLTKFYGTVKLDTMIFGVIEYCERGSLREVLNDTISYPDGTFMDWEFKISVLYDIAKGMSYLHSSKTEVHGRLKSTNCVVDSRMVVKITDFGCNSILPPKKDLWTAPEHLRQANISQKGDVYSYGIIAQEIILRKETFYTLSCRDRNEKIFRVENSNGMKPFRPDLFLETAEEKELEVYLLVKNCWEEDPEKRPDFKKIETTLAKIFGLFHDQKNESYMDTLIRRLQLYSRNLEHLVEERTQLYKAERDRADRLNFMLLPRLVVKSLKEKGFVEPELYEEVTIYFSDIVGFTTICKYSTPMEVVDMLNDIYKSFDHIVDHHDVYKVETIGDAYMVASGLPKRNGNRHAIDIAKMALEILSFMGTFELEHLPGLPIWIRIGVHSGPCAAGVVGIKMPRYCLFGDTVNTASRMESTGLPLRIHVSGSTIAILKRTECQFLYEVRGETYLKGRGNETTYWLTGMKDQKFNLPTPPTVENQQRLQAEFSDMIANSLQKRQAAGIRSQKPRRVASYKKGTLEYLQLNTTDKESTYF

Compound | absorption of ^3H-taurocholate (kinetics, FIG. 4) [1] | absorption of ^3H-taurocholate (FIG. 5) [1] | effect of PDE inhibitor on stimulation of cGMP production by SP-304 [2] | further results
Nc1nc2c(nc(Br)n2[C@@H]2O[C@@H]3COP(=O)(O)O[C@H]3[C@H]2O)c(=O)[nH]1 [8-Br-cGMP, 8-bromo-cGMP] | inhibited | inhibited | – | –
CC(C)Cn1c(=O)n(C)c(=O)c2[nH]cnc21 [IBMX, 3-isobutyl-1-methylxanthine] | – | – | synergistic effects | –
CC(C)C[C@H](NC(=O)[C@@H]1CSSC[C@@H]2NC(=O)[C@H](CC(C)C)NC(=O)[C@H](CCC(=O)O)NC(=O)[C@@H](NC(=O)[C@H](CCC(=O)O)NC(=O)[C@H](CC(=O)O)NC(=O)[C@@H](N)CC(N)=O)CSSC[C@H](NC(=O)[C@H](C)NC(=O)[C@H](C(C)C)NC(=O)[C@H](CC(N)=O)NC(=O)[C@H](C(C)C)NC2=O)C(=O)N[C@@H]([C@@H](C)O)C(=O)NCC(=O)N1)C(=O)O [SP-304, Asn^1-Asp^2-Glu^3-Cys^4-Glu^5-Leu^6-Cys^7-Val^8-Asn^9-Val^10-Ala^11-Cys^12-Thr^13-Gly^14-Cys^15-Leu^16] (H-NDECELCVNVACTGCL-OH; disulfide 4-12, 7-15; N-terminus assumed) | inhibited | inhibited | – | cGMP production by CaCo-2 cells in response to stimulation ([2]; serum free DMEM, 30 minutes, cGMP by ELISA): produced cGMP in response to stimulation; inhibition in absorption of ^3H-taurocholate (FIG. 6), SP-304 alone ([1]; SP-304 0.1 uM alone): did not produce much inhibition; inhibition of ^3H-taurocholate absorption (FIG. 6), SP-304 in combination with ZAP ([1]; SP-304 0.1 uM in combination with ZAP 250 uM, compared with SP-304 alone): greater effect on inhibition
CC1=C(CC(=O)O)c2cc(F)ccc2/C1=C\c1ccc(S(C)(=O)=O)cc1 [SS, sulindac sulfone] | – | – | synergistic effects | –
CCCOc1ccccc1-c1nc2nn[nH]c2c(=O)[nH]1 [ZAP, zaprinast] | – | – | synergistic effects | cGMP production among the PDE inhibitors combined with SP-304 ([2]; comparison of IBMX, SS and ZAP): maximum production of cGMP
